Publication PMC8076300, “A novel cystathionine γ-lyase inhibitor, I194496, inhibits the growth and metastasis of human TNBC via downregulating multiple signaling pathways” (Scientific Reports, 2021)

Molecular target: T1, cystathionine γ-lyase (CSE) (Homo sapiens, UniProt P32929)
T1 construct: gene CTH
Assay: methylene blue H2S production assay with purified recombinant CSE, L-cysteine substrate
Format: biochemical

T1 sequence (P32929 whole entry): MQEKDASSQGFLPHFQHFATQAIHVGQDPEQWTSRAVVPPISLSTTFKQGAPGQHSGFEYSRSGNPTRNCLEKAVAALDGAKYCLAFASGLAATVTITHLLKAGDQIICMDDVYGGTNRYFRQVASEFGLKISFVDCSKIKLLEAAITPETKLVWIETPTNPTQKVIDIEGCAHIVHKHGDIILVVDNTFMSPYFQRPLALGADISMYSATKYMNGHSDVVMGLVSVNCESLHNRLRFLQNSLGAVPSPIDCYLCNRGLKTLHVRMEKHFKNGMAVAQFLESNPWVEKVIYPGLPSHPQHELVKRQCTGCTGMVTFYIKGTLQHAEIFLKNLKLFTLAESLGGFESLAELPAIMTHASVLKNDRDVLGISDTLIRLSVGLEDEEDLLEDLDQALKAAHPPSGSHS

IC50: 790 µM
Compound: COc1ccc(-c2cc(C(F)F)n3ncc(C(=O)Nc4ccc(S(=O)(=O)Nc5ccccc5OC)cc4)c3n2)cc1 [I194496, 7-(difluoromethyl)-N-{4-[(2-methoxyanilino)sulfonyl]phenyl}-5-(4-methoxyphenyl)pyrazolo[1,5-a]pyrimidine-3-carboxamide]
